A short description of this assay: DCIP redox potential vs CA concentration, light beer. The following applies: 4 hr, 2-4° C. The assay is classed as physicochemical. The procedure:
The light beer was purchased at a local market and was 2 months old at time of use. Carnosic acid was added via a 1% ethanol solution made with pure CA. The levels of addition were 0, 5, 10, 15 and 20 ppm. The beers were opened, additions made and the beers were fobbed and crowned as described in Example 4. All analyses were done in triplicate using the DCIP method as described in Example 4. The samples were refrigerated for approx. 4 hr before being degassed and analyzed.

For `CC(C)c1cc2c(c(O)c1O)[C@@]1(C(=O)O)CCCC(C)(C)[C@@H]1CC2` [CA, carnosic acid], the “Redox Potential” value was determined as 28.1 (5 ppm CA), 40.5 (10 ppm CA), 51.6 (15 ppm CA) and 67.4 (20 ppm CA).

Source of the values: patent US20050058745A1, “Use of Labiatae herb preparations for extending the flavor shelf life of malt beverages” (priority 2003, published 2005).
